Reference: publication PMC6090075 (Acta Pharmaceutica Sinica. B, 2017)

Biological target: low-density lipoprotein receptor (LDLR)-related protein 6 (LRP6) (Homo sapiens, UniProt O75581)
Experiment: SPR on immobilized recombinant LRP6
Type: binding

low-density lipoprotein receptor (LDLR)-related protein 6 (LRP6), sequence (O75581 20-1613): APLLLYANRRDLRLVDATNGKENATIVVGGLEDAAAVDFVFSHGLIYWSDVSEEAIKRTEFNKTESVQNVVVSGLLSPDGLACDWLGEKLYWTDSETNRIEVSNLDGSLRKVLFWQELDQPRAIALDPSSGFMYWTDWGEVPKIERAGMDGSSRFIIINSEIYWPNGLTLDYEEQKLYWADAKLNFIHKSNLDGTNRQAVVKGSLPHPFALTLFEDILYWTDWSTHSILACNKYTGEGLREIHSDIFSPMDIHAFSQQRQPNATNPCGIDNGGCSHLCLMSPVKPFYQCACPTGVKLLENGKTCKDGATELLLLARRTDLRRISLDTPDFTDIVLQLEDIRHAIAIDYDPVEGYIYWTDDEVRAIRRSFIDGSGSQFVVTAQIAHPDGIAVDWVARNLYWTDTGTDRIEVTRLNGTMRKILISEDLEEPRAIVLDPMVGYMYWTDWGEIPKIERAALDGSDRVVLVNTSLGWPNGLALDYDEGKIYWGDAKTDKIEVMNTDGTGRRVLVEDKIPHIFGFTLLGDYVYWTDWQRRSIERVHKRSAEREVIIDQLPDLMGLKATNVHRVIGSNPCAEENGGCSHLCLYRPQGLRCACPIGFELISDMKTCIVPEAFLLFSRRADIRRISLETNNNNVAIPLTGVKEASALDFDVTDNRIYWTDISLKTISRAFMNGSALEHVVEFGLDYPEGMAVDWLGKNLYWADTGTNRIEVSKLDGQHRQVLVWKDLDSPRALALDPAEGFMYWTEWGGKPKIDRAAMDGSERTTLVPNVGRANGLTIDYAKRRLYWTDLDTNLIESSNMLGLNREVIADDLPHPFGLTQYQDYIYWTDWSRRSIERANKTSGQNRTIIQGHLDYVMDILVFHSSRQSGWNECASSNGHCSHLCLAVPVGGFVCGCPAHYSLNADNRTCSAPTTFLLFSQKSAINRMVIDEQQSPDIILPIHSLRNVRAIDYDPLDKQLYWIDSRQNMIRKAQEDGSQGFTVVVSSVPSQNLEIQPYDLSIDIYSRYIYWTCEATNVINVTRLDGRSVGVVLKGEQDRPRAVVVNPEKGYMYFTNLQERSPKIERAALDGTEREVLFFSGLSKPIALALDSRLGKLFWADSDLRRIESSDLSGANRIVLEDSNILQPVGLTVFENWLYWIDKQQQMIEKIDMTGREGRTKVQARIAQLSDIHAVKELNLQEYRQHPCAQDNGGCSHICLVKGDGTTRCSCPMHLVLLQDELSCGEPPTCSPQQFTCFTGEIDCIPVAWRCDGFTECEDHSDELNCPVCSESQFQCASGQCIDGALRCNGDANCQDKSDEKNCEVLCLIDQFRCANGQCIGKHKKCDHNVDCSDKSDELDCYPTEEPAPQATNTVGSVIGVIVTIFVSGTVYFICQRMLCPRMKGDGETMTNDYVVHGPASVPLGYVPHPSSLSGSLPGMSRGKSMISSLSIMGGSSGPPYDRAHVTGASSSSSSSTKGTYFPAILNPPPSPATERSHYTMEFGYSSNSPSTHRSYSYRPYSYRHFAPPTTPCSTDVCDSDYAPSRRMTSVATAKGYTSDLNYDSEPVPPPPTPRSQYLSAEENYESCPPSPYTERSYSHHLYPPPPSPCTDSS

Kd: 5.65 µM
SMILES: C=CCSSC[C@H](N)C(=O)O [SAMC, S-allylmercaptocysteine]
